Patent US20220152044A1, “TREATMENT OF INFLAMMATORY DISEASES OF THE CENTRAL NERVOUS SYSTEM” (PALMAYA PTY LTD, priority 2019, published 2022)
“And” between values parts separate entries of the source, which are not always exact repeats. Identical values can stand only once.

Key:
any dependency = test: Detoxification from any dependency, 108 patients followed; assay type: in vivo, human
amphetamine use = test: Amphetamine / methamphetamine craving and withdrawal; assay type: in vivo, human; settings: methamphetamine patients, flumazenil infusions at 160 μg/hour
Experimental: In those patients that return 2-3 weeks with extreme anxiety and a desire to return to amphetamine use, the commencement of flumazenil infusions followed by a flumazenil implant that sustains a plasma concentration of flumazenil at 0.5-2 ng/ml or more decreases the cravings, including a decrease in the desire for amphetamines and allows reduction f irritability and aggression.

premenstrual tension = test: Premenstrual anxiety and symptoms in women treated with flumazenil; assay type: in vivo, human; settings: women complaining of premenstrual tension
anxiety = test: Anxiety states monitored in twenty one patients after flumazenil; assay type: in vivo, human
Source text: Twenty one patients were monitored after treatment with flumazenil for the following states: (i) calmness, (ii) tenseness, (iii) relaxation, (iv) contentedness, (v) worry; and (vi) upset.

[1] = Blood / plasma flumazenil level in patients; assay type: in vivo, human
Experimental: (§1) In a severe patient population, ondansetron may be given every 6-8 hours to assist in reducing the nausea and associated anxiety symptoms.
(§2) The patient was then treated with a subcutaneous implant delivering an estimated 60-80 micrograms per hour of flumazenil (based on water bath release rate testing). The implant was expected to last 8-10 weeks. This prevented the migraines for about 9-10weeks. In the week before the implant was inserted, the patient's blood flumazenil level was noted to be 0.5 ng/ml. The usual expected level for 160 microgram an hour infusions was in the order of 2-3 ng per ml and 1-1.5 ng for 80 microgram per hour infusions.
(§3) This finding that the migraines were stopped for a nine week period of time was amazing to the patient as they had suffered migraines for typically three weeks out of four for all of the years […]. At the end of week 8 on the first implant their blood flumazenil level was recorded as 0.5 ng per ml, which is considered a low level. Within a week another migraine started and the patient presented to the clinic for treatment.
(§4) This next implant was also delivering an estimated 60-80 micrograms of flumazenil per hour. Evidence of ovulation was confirmed by routine elevation of progesterone during the luteal phase of one of the two cycles during the time of this second implant. Again no migraines occurred during an 8-9 week time of the second implant. Blood levels of flumazenil at 1.2 and 1.3 ng/ml were recorded during the time of the second implant. After 9-10 weeks the patient, presented to a teaching hospital on the weekend with another migraine. They were treated with all the modern treatments for migraines without resolution of the migraine.

opioid use = test: Abstinence from opioids in 108 patients treated with flumazenil; assay type: in vivo, human; settings: 91.2% before flumazenil
Source text: In the 108 patients treated with flumazenil abstinence from opioids increased from 91.2% before flumazenil to 100% following the flumazenil treatment.

craving for nicotine = test: Nicotine craving and use in patients; assay type: in vivo, human; settings: flumazenil by infusion or nasally/sublingually 50 to 200 micrograms per dose
[2] = test system: smoking of nicotine cigarettes; test: Smoking of nicotine cigarettes in a group of 80 patients treated with flumazenil; assay type: in vivo, human
Source text: We have found a reduction in smoking of nicotine cigarettes with the use of flumazenil. We were able to document that those smoking changed from 82.7% before treatment to 75% following treatment in a group of 80 patients being treated with flumazenil.

HPA axis = HPA axis in stressed animals; assay type: in vivo
Source text: For this reason the combination of sustained release naltrexone and sustained release flumazenil using injections, implants or infusions would be expected to limit neuro-inflammatory diseases and their symptoms.

migraine = test: Treatment of migraine in a person with flumazenil infusion and subcutaneous implants; assay type: in vivo, human
Experimental: The patient recently presented to our clinic, and was treated with flumazenil given subcutaneously at a rate of 160 micrograms per hour, delivered by a spring driven pump for a continuous period of time. The time that the migraines regularly occurred was the week prior to menstruation.
as §2, §3
A further subcutaneous implant was inserted and within four hours all symptoms from the migraine had settled. This was most unusual and unexpected as the symptoms following migraines usually persisted many days for this patient.
as §4
A few days later a third implant was inserted. It again was surprising that all symptoms relating to the migraine settled within four hours.

cannabis withdrawal = test: Withdrawal from cannabis with high THC concentrations; assay type: in vivo, human; settings: flumazenil 160 μg/hour
Source text: Cannabis use has changed in recent years with a significant cohort describing high tetrahydrocannabinol (THC) concentrations in potent strains which are cultivated for their high THC content. In the patient group using these high concentrations of THC, we have noted that a group of patients give a clear cut history of extreme nausea, vomiting, anxiety changing to serious paranoid thoughts and delusions followed by psychosis over the first 3-5 days of ceasing drug use.
as §1
Our results indicated a clear reduction in anxiety, and paranoid symptoms, allowing patients who otherwise would be unable to cope with the symptoms, to cease cannabis use.

alcohol patients = test: Survey of 84 alcohol patients after flumazenil infusions or implants; assay type: in vivo, human
Source text: In a survey of 84 alcohol patients the percent of patients drinking daily fell from 14.5% to 5.5% following flumazenil infusions or implants.

usual expected blood flumazenil level ([1]; 80 microgram per hour infusions): 1 to 1.5 ng | usual expected blood flumazenil level ([1]; 160 microgram an hour infusions): 2-3 ng per ml | concentration at 8 weeks ([1]; human, blood, subcutaneous, migraine patient, end of week 8 on the first implant): 0.5 ng/mL | blood levels of flumazenil ([1]; migraine patient, during the time of the second implant): 1.2 ng/mL and 1.3 ng/mL | blood flumazenil level ([1]; migraine patient, in the week before the implant was inserted): 0.5 ng/mL
Structure (SMILES): CCOC(=O)c1ncn2c1CN(C)C(=O)c1cc(F)ccc1-2 [flumazenil]
daily use of alcohol, smoking, cannabis, amphetamines, opioids and other drug use (any dependency): reduction in daily use | severe withdrawal symptoms including psychosis or extreme anxiety (amphetamine use): prevent these symptoms | premenstrual symptoms (premenstrual tension): reduction in premenstrual symptoms | levels of relaxation following treatment (anxiety; twenty one patients): statically significant increase | states of calmness, tenseness, relaxation, contentedness, worry and upset (anxiety; twenty one patients after treatment): improved | abstinence from opioids following treatment (opioid use): 100% | craving for and use of nicotine (craving for nicotine): reduced craving and use | fall in those using (smoking) daily ([2]; from 78.1% to 71.4%): 4% | those smoking following treatment ([2]; group of 80 patients, 82.7% before treatment): 75% | those using (smoking) daily following treatment ([2]; same population, 78.1% before treatment): 71.4% | return of the HPA axis to normal (HPA axis): help return the HPA axis | time until all symptoms from the migraine had settled (migraine; after insertion of the further (second) subcutaneous implant): four | time until all symptoms relating to the migraine settled (migraine; after insertion of the third implant): four | time without migraines (migraine; second implant, estimated 60-80 micrograms flumazenil per hour): 8-9 week | occurrence of migraine at the expected time (week prior to menstruation) (migraine; subcutaneous infusion 160 micrograms per hour by spring driven pump): did not occur | nausea, vomiting, anxiety, paranoid thoughts, delusions, psychosis on ceasing high-THC cannabis (cannabis withdrawal): controls or reduces the presence of these symptoms | percentage abstinent to alcohol following treatment (alcohol patients; 53.1% before): 77.1% | percent of patients drinking daily following treatment (alcohol patients; flumazenil infusions or implants, 14.5% before): 5.5%
